Reference: paper doi:[…]/2021.10.07.463234v2 (biorxiv, 2021)
Structures can show the parent of a compound that is named as a salt.

Biological target: SARS-CoV-2 Mac1 (Severe acute respiratory syndrome coronavirus 2, UniProt P0DTD1)
Assay: biochemical
Settings: 100 µM; inhibitor

Going from Cc1cc(C2CCCCC2)n(O)c(=O)c1 [Ciclopirox ethanolamine] to CN1[C@@H]2CCC[C@H]1C[C@@H](NC(=O)c1nn(C)c3ccccc13)C2 [Granisetron], the “%inhibition” value falls from 12.57% to 0.5264%.

Compared with COc1cc2nccc(Oc3ccc(NC(=O)NC4CC4)c(Cl)c3)c2cc1C(N)=O [lenvatinib Mesylate], COc1ccc(NC(=O)c2ccc(C(=N)N(C)C)cc2)c(C(=O)Nc2ccc(Cl)cn2)c1 [Betrixaban maleate] is higher in “%inhibition” value: 0% for the first, 3.06% for the second.

Nc1c(Br)cc(Br)cc1CN[C@H]1CC[C@H](O)CC1 [Ambroxol] and CC1=C(C(=O)O)N2C(=O)[C@@H](NC(=O)[C@H](N)C3=CCC=CC3)[C@H]2SC1 [Cephradine monohydrate] are the same in “%inhibition” value: 0% for the first, 0% for the second.

Going from CC1(C)S[C@@H]2[C@H](NC(=O)[C@H](N)c3ccc(O)cc3)C(=O)N2[C@H]1C(=O)O [Amoxicillin trihydrate] to CC1(C)S[C@@H]2[C@H](NC(=O)[C@H](N)c3ccccc3)C(=O)N2[C@H]1C(=O)O [Ampicillin sodium], the “%inhibition” value falls from 5.69% to 0%.

In the case of N=C(N)NC(=O)c1nc(Cl)c(N)nc1N [Amiloride HCl dihydrate], the “%inhibition” value is reported as 4.635%.

Same assay, conditions: read-out: %inhibition

Compared with CCN(CCCc1ccccc1)CCCc1ccccc1 [Alverine Citrate], CN1CCC(OC(c2ccccc2)c2ccccc2)CC1 [Diphenylpyraline HCl] is lower in inhibition at 100 µM: 8.25% for the first, 0% for the second.

First: C[C@H]1O[C@H](O[C@H]2[C@H](O)[C@@H](O)[C@@H](O[C@H]3[C@H](O)[C@@H](O)C(O)O[C@@H]3CO)O[C@@H]2CO)[C@H](O)[C@@H](O)[C@@H]1N[C@H]1C=C(CO)[C@@H](O)[C@H](O)[C@H]1O (some centres unmarked) [Acarbose]
Second: CN[C@H]1C(=O)N[C@@H]2Cc3ccc(cc3)Oc3cc4cc(c3O[C@@H]3O[C@H](C(=O)O)[C@@H](O)[C@H](O)[C@H]3NC(=O)CCCCCCCCC(C)C)Oc3ccc(cc3Cl)[C@@H](O)[C@@H]3NC(=O)[C@H](NC(=O)[C@@H]4NC(=O)[C@@H](NC2=O)c2cc(cc(O)c2Cl)Oc2cc1ccc2O)c1ccc(O)c(c1)-c1c(O[C@H]2O[C@H](CO)[C@@H](O)[C@H](O)[C@@H]2O)cc(O)cc1[C@@H](C(=O)NCCCN(C)C)NC3=O [Dalbavancin]
The inhibition at 100 µM of the first is lower: 16% for the first, 23.4% for the second.

Going from O=c1[nH]cc(F)c(=O)[nH]1 [Fluorouracil (5-Fluoracil, 5-FU)] to O=c1[nH]c(=O)n([C@H]2C[C@H](O)[C@@H](CO)O2)cc1I [Idoxuridine], the inhibition at 100 µM rises from 0% to 44.1%.

Compared with N=C(N)NS(=O)(=O)c1ccc(N)cc1 [Sulfaguanidine], CCCNC(=O)NS(=O)(=O)c1ccc(Cl)cc1 [Chlorpropamide] is lower in inhibition at 100 µM: 8.72% for the first, 0% for the second.

Going from CC[C@H](C)C(=O)O[C@H]1CCC=C2C=C[C@H](C)[C@H](CC[C@@H]3C[C@@H](O)CC(=O)O3)[C@H]21 [Mevastatin] to CCC[C@@H]1CC(=O)N([C@@H](CC)C(N)=O)C1 [Brivaracetam], the inhibition at 100 µM rises from 12.1% to 24.6%.

First: CC(C)N(CCNC(=O)CN1CCCC1=O)C(C)C [Pramiracetam]
Second: O=C(O)CSCC(=O)NC1CCSC1=O (centres unmarked) [Erdosteine]
The inhibition at 100 µM of the first is lower: 1.25% for the first, 12.3% for the second.

Compared with CN(C)CCCN1c2ccccc2CCc2ccccc21 [Imipramine HCl], COc1ccc(C(=O)NCc2ccc(OCCN(C)C)cc2)cc1OC [Itopride hydrochloride] is lower in inhibition at 100 µM: 2.2% for the first, 0% for the second.

First: N[C@@H]1CONC1=O [D-Cycloserine]
Second: O=[N+]([O-])O[C@@H]1CO[C@H]2[C@@H]1OC[C@@H]2O [Isosorbide Mononitrate]
The inhibition at 100 µM of the first is higher: 6.32% for the first, 2.49% for the second.

First: Cc1ccc(-n2nc(C(C)(C)C)cc2NC(=O)NCc2cc(F)ccc2Oc2ccc3c(cnn3CCO)c2)cc1 [Pexmetinib (ARRY-614)]
Second: CNC(=O)c1cc(Oc2ccc(NC(=O)Nc3ccc(Cl)c(C(F)(F)F)c3)cc2)ccn1 [Sorafenib]
The inhibition at 100 µM of the first is lower: 0.769% for the first, 15.7% for the second.

Going from CN1[C@@H]2C[C@@H](OC(=O)[C@H](CO)c3ccccc3)C[C@H]1[C@@H]1O[C@@H]12 [Scopolamine HBr] to CC1(C)S[C@@H]2[C@H](NC(=O)Cc3ccccc3)C(=O)N2[C@H]1C(=O)O [Penicillin G Sodium], the inhibition at 100 µM rises from 0% to 5.64%.

CCC/N=C1\S/C(=C\c2ccc(OC[C@H](O)CO)c(Cl)c2)C(=O)N1c1ccccc1C [Ponesimod] and CC[C@H](Nc1ncnc2[nH]cnc12)c1nc2cccc(F)c2c(=O)n1-c1ccccc1 [Idelalisib (CAL-101, GS-1101)] are the same in inhibition at 100 µM: 0% for the first, 0% for the second.

Going from CC(C)CN(C[C@@H](O)[C@H](Cc1ccccc1)NC(=O)O[C@H]1CCOC1)S(=O)(=O)c1ccc(N)cc1 [Amprenavir] to CS(=O)(=O)c1ccc([C@@H](O)[C@@H](CF)NC(=O)C(Cl)Cl)cc1 [Florfenicol], the inhibition at 100 µM rises from 0% to 30.4%.

Compared with CC(C)(Oc1ccc(CCNC(=O)c2ccc(Cl)cc2)cc1)C(=O)O [Bezafibrate], CC(C)(C)C(=O)C(Oc1ccc(Cl)cc1)n1ccnc1 (centres unmarked) [Climbazole] is higher in inhibition at 100 µM: 9.85% for the first, 18.5% for the second.

First: N[C@@H](Cc1ccc(N(CCCl)CCCl)cc1)C(=O)O [Melphalan]
Second: COCCCC/C(=N\OCCN)c1ccc(C(F)(F)F)cc1 [Fluvoxamine maleate]
The inhibition at 100 µM of the first is higher: 3.44% for the first, 0% for the second.

Going from Cc1nnc(SCC2=C(C(=O)O)N3C(=O)[C@@H](NC(=O)Cn4cnnn4)[C@H]3SC2)s1 [Cefazolin Sodium] to CO/N=C(\C(=O)N[C@@H]1C(=O)N2C(C(=O)[O-])=C(C[n+]3ccn4ncccc43)CS[C@H]12)c1nsc(N)n1 [Cefozopran hydrochloride], the inhibition at 100 µM rises from 2.52% to 8.9%.

Compared with CC1=C(/C=C/C(C)=C/C=C/C(C)=C/CO)C(C)(C)CCC1 [Vitamin A], CC1(O)CCC(C(C)(C)O)CC1 (centres unmarked) [Terpin hydrate] is lower in inhibition at 100 µM: 2.61% for the first, 0% for the second.

First: COC(=O)Nc1nc2cc([S+]([O-])c3ccccc3)ccc2[nH]1 (centres unmarked) [Oxfendazole]
Second: O=C(O)c1ccccc1Nc1cccc(C(F)(F)F)c1 [Flufenamic acid]
The inhibition at 100 µM of the first is lower: 0% for the first, 3.41% for the second.

First: CC(C)NCC(O)c1ccc(O)c(O)c1 (centres unmarked) [Isoprenaline HCl]
Second: Cn1cnc2c(F)c(Nc3ccc(Br)cc3F)c(C(=O)NOCCO)cc21 [Binimetinib (MEK162, ARRY-162, ARRY-438162)]
The inhibition at 100 µM of the first is lower: 5.07% for the first, 24% for the second.

Compared with Cc1onc(-c2c(F)cccc2Cl)c1C(=O)N[C@@H]1C(=O)N2[C@@H]1SC(C)(C)[C@@H]2C(=O)O [Flucloxacillin sodium], Cc1cccc(C)c1N(CC(=O)Nc1ccc(-c2ncon2)cc1)C(=O)C1CCS(=O)(=O)CC1 [Amenamevir] is higher in inhibition at 100 µM: 1.41% for the first, 8.46% for the second.

Going from CO/N=C(\C(=O)N[C@@H]1C(=O)N2C(C(=O)O)=CCS[C@H]12)c1csc(N)n1 [Ceftizoxime] to C[N+](C)(C)CCOP(=O)(O)OP(=O)([O-])OC[C@H]1O[C@@H](n2ccc(N)nc2=O)[C@H](O)[C@@H]1O [Citicoline sodium], the inhibition at 100 µM falls from 12.3% to 1.89%.

CCC(COC(=O)c1cc(OC)c(OC)c(OC)c1)(c1ccccc1)N(C)C (centres unmarked) [Trimebutine maleate] and CC(=O)c1c(C)c2cnc(Nc3ccc(N4CCNCC4)cn3)nc2n(C2CCCC2)c1=O [Palbociclib (PD-0332991) HCl] are the same in inhibition at 100 µM: 0% for the first, 0% for the second.

FC(F)(F)C(Cl)Br (centres unmarked) [Halothane] and C[N+](C)(C)CCCCCCCCCC[N+](C)(C)C [Decamethonium Bromide] are the same in inhibition at 100 µM: 0% for the first, 0% for the second.
